From ChEMBL document CHEMBL3885881, “DrugMatrix”

Species: Rattus norvegicus
Assay: DrugMatrix - Regimen: Daily Repeat
Format: toxicity, organism-based, Sprague-Dawley
Parameters: regimen Daily Repeat, gender Male, age 6-8 weeks
Settings: in vivo, po, route oral GAVAGE, vehicle .5 % CMC; for BASOPHIL / EOSINOPHIL / ERYTHROCYTE COUNT / HEMATOCRIT / HEMOGLOBIN / LEUKOCYTE COUNT / LYMPHOCYTE / MEAN CORPUSCULAR HEMOGLOBIN / MEAN CORPUSCULAR HEMOGLOBIN CONCENTRATION / MEAN CORPUSCULAR VOLUME / MONOCYTE / NEUTROPHIL / PLATELET COUNT: tissue Blood; for ALANINE AMINOTRANSFERASE / ALBUMIN / ALKALINE PHOSPHATASE / ASPARTATE AMINOTRANSFERASE / BLOOD UREA NITROGEN / CHLORIDE / CHOLESTEROL / CREATINE PHOSPHOKINASE / CREATININE / GLUCOSE / PHOSPHORUS / POTASSIUM / SODIUM / TOTAL BILIRUBIN / TOTAL PROTEIN: tissue Plasma
[1] = 0 mg/kg, 72 h, dose level Control, time 3 day
[2] = 0 mg/kg, 120 h, dose level Control, time 5 day
[3] = 21 mg/kg, 72 h, dose level Low, time 3 day
[4] = 21 mg/kg, 120 h, dose level Low, time 5 day

Cc1onc(-c2ccccc2)c1-c1ccc(S(N)(=O)=O)cc1 [VALDECOXIB] was tested. Which BASOPHIL [1] did it give?
Its BASOPHIL is 0.68%.

And the EOSINOPHIL [1]?
The EOSINOPHIL was 0.46%.

What about the “ERYTHROCYTE COUNT” value [1] of the same molecule?
Its value is 7.15 x10E6/uL.

And the HEMATOCRIT [1]?
The HEMATOCRIT was 45.44%.

What about the HEMOGLOBIN [1] of the same molecule?
The HEMOGLOBIN was 14.1 G/DL.

And the “LEUKOCYTE COUNT” value [1]?
Its value is 9.78 x10E3/uL.

What about the LYMPHOCYTE [1] of the same molecule?
The LYMPHOCYTE was 84.44%.

And the “MEAN CORPUSCULAR HEMOGLOBIN” value [1]?
The value was 19.72 pg.

What about the “MEAN CORPUSCULAR HEMOGLOBIN CONCENTRATION” value [1] of the same molecule?
Its value is 31 G/DL.

And the “MEAN CORPUSCULAR VOLUME” value [1]?
The value was 63.66 fL.

And the MONOCYTE [1]?
Its MONOCYTE is 2.14%.

What about the NEUTROPHIL [1] of the same molecule?
The NEUTROPHIL was 11.16%.

And the “PLATELET COUNT” value [1]?
Its value is 1378.2 x10E3/uL.

What about the “ALANINE AMINOTRANSFERASE” value [1] of the same molecule?
Its value is 42.33 u/L.

And the ALBUMIN [1]?
Its ALBUMIN is 3.8 G/DL.

What about the “ALKALINE PHOSPHATASE” value [1] of the same molecule?
Its value is 388.17 u/L.

And the “ASPARTATE AMINOTRANSFERASE” value [1]?
Its value is 68 u/L.

And the “BLOOD UREA NITROGEN” value [1]?
Its value is 16.17 mg/dL.

What about the CHLORIDE [1] of the same molecule?
Its CHLORIDE is 96.67 MEQ/L.

And the CHOLESTEROL [1]?
Its CHOLESTEROL is 71 mg/dL.

What about the “CREATINE PHOSPHOKINASE” value [1] of the same molecule?
Its value is 156.17 u/L.

And the CREATININE [1]?
Its CREATININE is 0.57 mg/dL.

And the GLUCOSE [1]?
Its GLUCOSE is 193.67 mg/dL.

And the PHOSPHORUS [1]?
Its PHOSPHORUS is 11.43 mg/dL.

What about the POTASSIUM [1] of the same molecule?
The POTASSIUM was 7 MEQ/L.

And the SODIUM [1]?
Its SODIUM is 140.33 MEQ/L.

What about the “TOTAL BILIRUBIN” value [1] of the same molecule?
Its value is 0.48 mg/dL.

What about the “TOTAL PROTEIN” value [1] of the same molecule?
Its value is 6.8 G/DL.

What about the BASOPHIL [2] of the same molecule?
Its BASOPHIL is 1.47%.

What about the EOSINOPHIL [2] of the same molecule?
The EOSINOPHIL was 1%.

What about the “ERYTHROCYTE COUNT” value [2] of the same molecule?
Its value is 7.12 x10E6/uL.

And the HEMATOCRIT [2]?
Its HEMATOCRIT is 45.47%.

And the HEMOGLOBIN [2]?
The HEMOGLOBIN was 14.1 G/DL.

And the “LEUKOCYTE COUNT” value [2]?
The value was 11.38 x10E3/uL.

And the LYMPHOCYTE [2]?
Its LYMPHOCYTE is 82.57%.

And the “MEAN CORPUSCULAR HEMOGLOBIN” value [2]?
Its value is 19.82 pg.

And the “MEAN CORPUSCULAR HEMOGLOBIN CONCENTRATION” value [2]?
Its value is 31.02 G/DL.

And the “MEAN CORPUSCULAR VOLUME” value [2]?
The value was 63.88 fL.

And the MONOCYTE [2]?
The MONOCYTE was 2.2%.

What about the NEUTROPHIL [2] of the same molecule?
Its NEUTROPHIL is 11.97%.

What about the “PLATELET COUNT” value [2] of the same molecule?
Its value is 1267 x10E3/uL.

What about the “ALANINE AMINOTRANSFERASE” value [2] of the same molecule?
The value was 38 u/L.

And the ALBUMIN [2]?
Its ALBUMIN is 3.72 G/DL.

And the “ALKALINE PHOSPHATASE” value [2]?
The value was 391 u/L.

And the “ASPARTATE AMINOTRANSFERASE” value [2]?
Its value is 65.83 u/L.

What about the “BLOOD UREA NITROGEN” value [2] of the same molecule?
The value was 14.17 mg/dL.

And the CHLORIDE [2]?
Its CHLORIDE is 107.67 MEQ/L.

And the CHOLESTEROL [2]?
The CHOLESTEROL was 61 mg/dL.

And the “CREATINE PHOSPHOKINASE” value [2]?
Its value is 148.33 u/L.

What about the CREATININE [2] of the same molecule?
Its CREATININE is 0.57 mg/dL.

What about the GLUCOSE [2] of the same molecule?
The GLUCOSE was 177.17 mg/dL.

And the PHOSPHORUS [2]?
Its PHOSPHORUS is 12.07 mg/dL.

And the POTASSIUM [2]?
The POTASSIUM was 7.2 MEQ/L.

And the SODIUM [2]?
Its SODIUM is 151.5 MEQ/L.

And the “TOTAL BILIRUBIN” value [2]?
The value was 0.58 mg/dL.

What about the “TOTAL PROTEIN” value [2] of the same molecule?
The value was 6.72 G/DL.

What about the BASOPHIL [3] of the same molecule?
Its BASOPHIL is 0.53%.

And the EOSINOPHIL [3]?
Its EOSINOPHIL is 0.4%.

And the “ERYTHROCYTE COUNT” value [3]?
The value was 6.91 x10E6/uL.

What about the HEMATOCRIT [3] of the same molecule?
The HEMATOCRIT was 43%.

What about the HEMOGLOBIN [3] of the same molecule?
Its HEMOGLOBIN is 13.7 G/DL.

What about the “LEUKOCYTE COUNT” value [3] of the same molecule?
The value was 11.32 x10E3/uL.

And the LYMPHOCYTE [3]?
Its LYMPHOCYTE is 84.1%.

What about the “MEAN CORPUSCULAR HEMOGLOBIN” value [3] of the same molecule?
The value was 19.8 pg.

And the “MEAN CORPUSCULAR HEMOGLOBIN CONCENTRATION” value [3]?
The value was 31.87 G/DL.

And the “MEAN CORPUSCULAR VOLUME” value [3]?
The value was 62.2 fL.

And the MONOCYTE [3]?
Its MONOCYTE is 2.17%.

What about the NEUTROPHIL [3] of the same molecule?
The NEUTROPHIL was 11.67%.

And the “PLATELET COUNT” value [3]?
Its value is 1322.33 x10E3/uL.

And the “ALANINE AMINOTRANSFERASE” value [3]?
The value was 35 u/L.

What about the ALBUMIN [3] of the same molecule?
The ALBUMIN was 3.63 G/DL.

And the “ALKALINE PHOSPHATASE” value [3]?
The value was 309 u/L.

And the “ASPARTATE AMINOTRANSFERASE” value [3]?
Its value is 58.33 u/L.

And the “BLOOD UREA NITROGEN” value [3]?
The value was 13 mg/dL.

And the CHLORIDE [3]?
The CHLORIDE was 95.33 MEQ/L.

What about the CHOLESTEROL [3] of the same molecule?
The CHOLESTEROL was 78.33 mg/dL.

What about the “CREATINE PHOSPHOKINASE” value [3] of the same molecule?
The value was 150 u/L.

And the CREATININE [3]?
The CREATININE was 0.47 mg/dL.

And the GLUCOSE [3]?
Its GLUCOSE is 190 mg/dL.

And the PHOSPHORUS [3]?
Its PHOSPHORUS is 11.8 mg/dL.

What about the POTASSIUM [3] of the same molecule?
The POTASSIUM was 6.2 MEQ/L.

What about the SODIUM [3] of the same molecule?
The SODIUM was 139 MEQ/L.

And the “TOTAL BILIRUBIN” value [3]?
The value was 0.2 mg/dL.

What about the “TOTAL PROTEIN” value [3] of the same molecule?
The value was 6.43 G/DL.

And the BASOPHIL [4]?
Its BASOPHIL is 1.7%.

And the EOSINOPHIL [4]?
The EOSINOPHIL was 5.9%.

What about the “ERYTHROCYTE COUNT” value [4] of the same molecule?
The value was 7.33 x10E6/uL.

And the HEMATOCRIT [4]?
The HEMATOCRIT was 45.75%.

What about the HEMOGLOBIN [4] of the same molecule?
Its HEMOGLOBIN is 14.55 G/DL.

What about the “LEUKOCYTE COUNT” value [4] of the same molecule?
Its value is 9.46 x10E3/uL.

And the LYMPHOCYTE [4]?
The LYMPHOCYTE was 42.8%.

What about the “MEAN CORPUSCULAR HEMOGLOBIN” value [4] of the same molecule?
The value was 19.85 pg.

What about the “MEAN CORPUSCULAR HEMOGLOBIN CONCENTRATION” value [4] of the same molecule?
Its value is 31.85 G/DL.

What about the “MEAN CORPUSCULAR VOLUME” value [4] of the same molecule?
The value was 62.35 fL.

And the MONOCYTE [4]?
Its MONOCYTE is 1.7%.

And the NEUTROPHIL [4]?
The NEUTROPHIL was 47.25%.

And the “PLATELET COUNT” value [4]?
Its value is 1408 x10E3/uL.

And the “ALANINE AMINOTRANSFERASE” value [4]?
Its value is 30.33 u/L.

What about the ALBUMIN [4] of the same molecule?
Its ALBUMIN is 3.67 G/DL.

What about the “ALKALINE PHOSPHATASE” value [4] of the same molecule?
Its value is 296.33 u/L.

And the “ASPARTATE AMINOTRANSFERASE” value [4]?
The value was 52.67 u/L.

And the “BLOOD UREA NITROGEN” value [4]?
The value was 12.67 mg/dL.

What about the CHLORIDE [4] of the same molecule?
Its CHLORIDE is 104 MEQ/L.

And the CHOLESTEROL [4]?
Its CHOLESTEROL is 61 mg/dL.

And the “CREATINE PHOSPHOKINASE” value [4]?
The value was 128.67 u/L.

And the CREATININE [4]?
Its CREATININE is 0.43 mg/dL.

And the GLUCOSE [4]?
Its GLUCOSE is 196 mg/dL.

What about the PHOSPHORUS [4] of the same molecule?
The PHOSPHORUS was 12.73 mg/dL.

And the POTASSIUM [4]?
The POTASSIUM was 7.17 MEQ/L.

What about the SODIUM [4] of the same molecule?
Its SODIUM is 149.67 MEQ/L.

What about the “TOTAL BILIRUBIN” value [4] of the same molecule?
Its value is 0.43 mg/dL.

What about the “TOTAL PROTEIN” value [4] of the same molecule?
The value was 6.7 G/DL.
